Test [1] has as its target T1, Androgen receptor (Homo sapiens, UniProt P10275).
T1 sequence (P10275 whole entry): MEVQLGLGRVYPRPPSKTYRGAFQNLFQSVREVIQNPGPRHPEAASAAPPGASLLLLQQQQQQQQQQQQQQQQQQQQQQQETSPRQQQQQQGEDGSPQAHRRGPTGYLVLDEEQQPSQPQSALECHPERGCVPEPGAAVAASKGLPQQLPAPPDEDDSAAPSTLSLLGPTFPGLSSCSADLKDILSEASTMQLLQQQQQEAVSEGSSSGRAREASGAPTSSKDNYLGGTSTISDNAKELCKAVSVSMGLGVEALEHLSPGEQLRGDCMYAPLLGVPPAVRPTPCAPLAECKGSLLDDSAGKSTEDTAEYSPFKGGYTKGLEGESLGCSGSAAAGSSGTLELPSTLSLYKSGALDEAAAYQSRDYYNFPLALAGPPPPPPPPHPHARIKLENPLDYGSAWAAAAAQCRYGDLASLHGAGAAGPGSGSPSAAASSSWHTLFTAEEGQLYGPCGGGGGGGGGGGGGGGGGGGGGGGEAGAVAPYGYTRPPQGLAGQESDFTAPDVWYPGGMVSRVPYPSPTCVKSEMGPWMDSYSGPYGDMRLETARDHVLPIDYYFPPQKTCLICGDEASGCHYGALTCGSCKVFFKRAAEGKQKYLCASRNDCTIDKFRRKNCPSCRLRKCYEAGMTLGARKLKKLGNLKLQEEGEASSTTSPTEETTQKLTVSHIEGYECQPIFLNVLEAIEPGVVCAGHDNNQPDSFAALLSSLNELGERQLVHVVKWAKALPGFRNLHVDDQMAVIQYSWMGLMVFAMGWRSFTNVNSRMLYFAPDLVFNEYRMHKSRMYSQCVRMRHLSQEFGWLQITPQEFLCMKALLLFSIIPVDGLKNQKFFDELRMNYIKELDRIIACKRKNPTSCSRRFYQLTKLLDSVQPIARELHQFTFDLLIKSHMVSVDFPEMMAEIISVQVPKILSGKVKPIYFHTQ

Test [2] addresses Gamma-aminobutyric acid receptor subunit alpha-1 (Rattus norvegicus, UniProt P62813).
For test [3], the target named is T2, Progesterone receptor (Homo sapiens, UniProt P06401).
T2 sequence (P06401 whole entry): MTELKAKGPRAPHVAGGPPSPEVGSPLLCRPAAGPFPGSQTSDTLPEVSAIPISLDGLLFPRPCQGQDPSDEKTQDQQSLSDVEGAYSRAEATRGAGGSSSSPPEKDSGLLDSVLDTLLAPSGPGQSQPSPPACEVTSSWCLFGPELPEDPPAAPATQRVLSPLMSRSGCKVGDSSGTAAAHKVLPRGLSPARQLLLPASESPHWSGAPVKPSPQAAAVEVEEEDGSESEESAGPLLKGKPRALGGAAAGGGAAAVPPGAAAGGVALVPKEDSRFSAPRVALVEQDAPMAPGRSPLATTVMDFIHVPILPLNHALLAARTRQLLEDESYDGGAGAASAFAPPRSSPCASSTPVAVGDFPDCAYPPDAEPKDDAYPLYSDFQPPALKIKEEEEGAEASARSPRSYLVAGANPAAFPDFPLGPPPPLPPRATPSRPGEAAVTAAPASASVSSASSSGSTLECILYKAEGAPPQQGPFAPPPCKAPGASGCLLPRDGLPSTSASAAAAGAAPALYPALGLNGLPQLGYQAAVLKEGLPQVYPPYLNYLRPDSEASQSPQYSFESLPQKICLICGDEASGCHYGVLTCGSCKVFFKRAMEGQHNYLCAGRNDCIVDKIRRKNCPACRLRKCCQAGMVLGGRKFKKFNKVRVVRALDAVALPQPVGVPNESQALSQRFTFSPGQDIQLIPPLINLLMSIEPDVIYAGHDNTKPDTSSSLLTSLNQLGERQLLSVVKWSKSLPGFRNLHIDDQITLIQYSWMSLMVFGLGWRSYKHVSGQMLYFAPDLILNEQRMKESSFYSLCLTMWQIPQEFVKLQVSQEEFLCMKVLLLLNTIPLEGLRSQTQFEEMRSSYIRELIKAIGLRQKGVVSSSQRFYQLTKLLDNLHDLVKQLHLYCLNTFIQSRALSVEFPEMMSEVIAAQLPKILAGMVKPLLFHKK

Test [4] has as its target Gamma-aminobutyric acid receptor subunit alpha-1/alpha-2/beta-2/gamma-2 (Homo sapiens, UniProt P14867+P18507+P47869+P47870). The format is functional, cell-based.
The target in test [5] is 5-hydroxytryptamine receptor 2B (Homo sapiens, UniProt P41595).
5-hydroxytryptamine receptor 2B, sequence (P41595 whole entry): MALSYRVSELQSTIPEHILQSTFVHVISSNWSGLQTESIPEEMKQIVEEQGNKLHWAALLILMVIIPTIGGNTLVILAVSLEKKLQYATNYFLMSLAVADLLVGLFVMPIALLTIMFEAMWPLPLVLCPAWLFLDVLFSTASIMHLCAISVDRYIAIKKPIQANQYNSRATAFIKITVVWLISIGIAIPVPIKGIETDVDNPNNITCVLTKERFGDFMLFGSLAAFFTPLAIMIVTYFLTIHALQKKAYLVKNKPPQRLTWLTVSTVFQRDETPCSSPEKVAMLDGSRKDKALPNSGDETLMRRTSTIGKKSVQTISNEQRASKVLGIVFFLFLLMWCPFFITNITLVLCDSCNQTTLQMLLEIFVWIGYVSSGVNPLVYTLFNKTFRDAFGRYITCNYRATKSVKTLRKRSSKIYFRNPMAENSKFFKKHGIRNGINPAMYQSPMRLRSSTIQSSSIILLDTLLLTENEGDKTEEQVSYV
Test [6] addresses T3, Corticotropin-releasing factor receptor 1 (Homo sapiens, UniProt P34998).
T3 sequence (P34998 whole entry): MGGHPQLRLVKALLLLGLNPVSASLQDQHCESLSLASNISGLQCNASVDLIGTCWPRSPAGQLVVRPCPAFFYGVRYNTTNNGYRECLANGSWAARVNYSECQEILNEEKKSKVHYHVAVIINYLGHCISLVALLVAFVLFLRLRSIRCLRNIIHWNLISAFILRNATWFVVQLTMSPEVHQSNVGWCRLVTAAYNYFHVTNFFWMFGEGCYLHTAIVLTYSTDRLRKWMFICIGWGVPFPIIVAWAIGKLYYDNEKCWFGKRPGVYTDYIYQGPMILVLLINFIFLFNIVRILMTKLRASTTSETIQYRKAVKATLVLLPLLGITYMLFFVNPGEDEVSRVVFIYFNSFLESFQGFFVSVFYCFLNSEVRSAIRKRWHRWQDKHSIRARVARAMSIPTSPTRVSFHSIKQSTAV

The target of test [7] is Glucagon receptor (Homo sapiens, UniProt P47871).
Glucagon receptor, sequence (P47871 whole entry): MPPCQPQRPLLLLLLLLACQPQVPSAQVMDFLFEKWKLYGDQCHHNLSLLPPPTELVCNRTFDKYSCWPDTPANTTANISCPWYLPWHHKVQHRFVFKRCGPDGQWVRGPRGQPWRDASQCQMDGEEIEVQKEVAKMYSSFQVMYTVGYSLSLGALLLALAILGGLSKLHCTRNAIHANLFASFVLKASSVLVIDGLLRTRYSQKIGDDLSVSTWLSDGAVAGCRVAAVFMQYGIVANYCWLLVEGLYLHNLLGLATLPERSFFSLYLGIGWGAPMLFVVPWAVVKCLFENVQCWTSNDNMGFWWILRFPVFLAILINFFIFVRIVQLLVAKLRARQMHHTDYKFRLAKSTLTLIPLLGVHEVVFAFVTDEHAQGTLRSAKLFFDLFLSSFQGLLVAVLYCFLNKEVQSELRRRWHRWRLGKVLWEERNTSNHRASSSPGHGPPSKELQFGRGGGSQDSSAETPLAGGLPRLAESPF
In test [8] the target is T4, Neuropeptide Y receptor type 2 (Homo sapiens, UniProt P49146).
T4 sequence (P49146 whole entry): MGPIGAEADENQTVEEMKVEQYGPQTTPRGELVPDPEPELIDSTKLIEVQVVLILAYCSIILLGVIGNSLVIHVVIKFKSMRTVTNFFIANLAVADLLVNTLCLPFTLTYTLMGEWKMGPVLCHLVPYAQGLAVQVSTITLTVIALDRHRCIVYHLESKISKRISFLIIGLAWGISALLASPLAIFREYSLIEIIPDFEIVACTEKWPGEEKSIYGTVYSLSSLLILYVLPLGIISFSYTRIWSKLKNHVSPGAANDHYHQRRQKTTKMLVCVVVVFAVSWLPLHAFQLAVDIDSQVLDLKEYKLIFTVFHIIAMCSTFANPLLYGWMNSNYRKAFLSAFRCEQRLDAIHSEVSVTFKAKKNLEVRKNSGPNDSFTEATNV
Note: assay procedure not described here.

Gamma-aminobutyric acid receptor subunit alpha-1/alpha-2/beta-2/gamma-2, sequence (P14867 whole entry): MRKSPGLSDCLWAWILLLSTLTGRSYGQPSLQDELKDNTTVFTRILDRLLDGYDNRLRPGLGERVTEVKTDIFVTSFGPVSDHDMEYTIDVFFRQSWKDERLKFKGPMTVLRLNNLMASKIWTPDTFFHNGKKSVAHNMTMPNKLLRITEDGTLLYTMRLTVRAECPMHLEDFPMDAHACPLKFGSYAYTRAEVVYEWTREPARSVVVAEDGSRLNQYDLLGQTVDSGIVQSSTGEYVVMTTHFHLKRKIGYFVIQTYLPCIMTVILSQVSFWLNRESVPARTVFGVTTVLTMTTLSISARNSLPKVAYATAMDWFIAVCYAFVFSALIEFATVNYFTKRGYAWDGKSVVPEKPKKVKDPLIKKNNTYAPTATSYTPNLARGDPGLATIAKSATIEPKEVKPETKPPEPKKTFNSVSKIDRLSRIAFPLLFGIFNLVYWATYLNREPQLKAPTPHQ
Gamma-aminobutyric acid receptor subunit alpha-1/alpha-2/beta-2/gamma-2, sequence (P47870 whole entry): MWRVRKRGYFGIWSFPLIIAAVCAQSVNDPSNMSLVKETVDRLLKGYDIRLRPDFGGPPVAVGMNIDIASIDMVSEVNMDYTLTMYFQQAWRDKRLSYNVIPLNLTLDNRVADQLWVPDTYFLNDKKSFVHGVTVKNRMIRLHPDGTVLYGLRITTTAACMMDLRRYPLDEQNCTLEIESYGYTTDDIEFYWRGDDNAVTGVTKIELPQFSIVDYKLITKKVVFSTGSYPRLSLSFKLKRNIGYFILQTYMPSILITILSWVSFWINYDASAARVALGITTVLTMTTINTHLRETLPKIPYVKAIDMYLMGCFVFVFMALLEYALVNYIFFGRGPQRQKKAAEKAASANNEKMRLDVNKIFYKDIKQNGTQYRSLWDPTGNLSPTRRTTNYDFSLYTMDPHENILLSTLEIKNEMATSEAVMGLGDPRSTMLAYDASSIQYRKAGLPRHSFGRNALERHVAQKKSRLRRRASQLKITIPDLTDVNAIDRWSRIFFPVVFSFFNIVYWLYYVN
Gamma-aminobutyric acid receptor subunit alpha-1/alpha-2/beta-2/gamma-2, sequence (P18507 whole entry): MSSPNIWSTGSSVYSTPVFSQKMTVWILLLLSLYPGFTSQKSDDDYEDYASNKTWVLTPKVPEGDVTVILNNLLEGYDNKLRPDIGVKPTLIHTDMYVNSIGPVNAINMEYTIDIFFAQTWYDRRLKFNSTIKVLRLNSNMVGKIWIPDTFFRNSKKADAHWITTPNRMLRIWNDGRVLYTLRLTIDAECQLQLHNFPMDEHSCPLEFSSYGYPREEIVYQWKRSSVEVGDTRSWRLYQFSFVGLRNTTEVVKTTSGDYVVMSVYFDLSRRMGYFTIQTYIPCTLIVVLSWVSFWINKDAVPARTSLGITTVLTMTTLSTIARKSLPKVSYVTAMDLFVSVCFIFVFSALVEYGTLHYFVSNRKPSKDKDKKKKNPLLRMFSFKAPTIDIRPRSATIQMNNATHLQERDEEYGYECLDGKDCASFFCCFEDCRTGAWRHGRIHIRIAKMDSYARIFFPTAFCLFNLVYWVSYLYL
Gamma-aminobutyric acid receptor subunit alpha-1/alpha-2/beta-2/gamma-2, sequence (P47869 whole entry): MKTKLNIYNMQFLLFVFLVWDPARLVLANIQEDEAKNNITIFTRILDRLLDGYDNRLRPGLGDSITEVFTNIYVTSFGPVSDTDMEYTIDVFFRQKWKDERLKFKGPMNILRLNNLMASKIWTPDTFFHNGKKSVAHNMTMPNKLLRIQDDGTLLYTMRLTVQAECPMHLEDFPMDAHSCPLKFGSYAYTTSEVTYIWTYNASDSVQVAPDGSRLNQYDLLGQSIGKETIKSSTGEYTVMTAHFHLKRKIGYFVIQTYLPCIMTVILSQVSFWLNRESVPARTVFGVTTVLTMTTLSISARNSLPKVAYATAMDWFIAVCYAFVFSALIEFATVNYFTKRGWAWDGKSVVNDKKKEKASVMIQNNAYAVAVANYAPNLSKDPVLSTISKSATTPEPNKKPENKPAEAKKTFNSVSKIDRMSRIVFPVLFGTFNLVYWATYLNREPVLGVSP
Gamma-aminobutyric acid receptor subunit alpha-1, sequence (P62813 whole entry): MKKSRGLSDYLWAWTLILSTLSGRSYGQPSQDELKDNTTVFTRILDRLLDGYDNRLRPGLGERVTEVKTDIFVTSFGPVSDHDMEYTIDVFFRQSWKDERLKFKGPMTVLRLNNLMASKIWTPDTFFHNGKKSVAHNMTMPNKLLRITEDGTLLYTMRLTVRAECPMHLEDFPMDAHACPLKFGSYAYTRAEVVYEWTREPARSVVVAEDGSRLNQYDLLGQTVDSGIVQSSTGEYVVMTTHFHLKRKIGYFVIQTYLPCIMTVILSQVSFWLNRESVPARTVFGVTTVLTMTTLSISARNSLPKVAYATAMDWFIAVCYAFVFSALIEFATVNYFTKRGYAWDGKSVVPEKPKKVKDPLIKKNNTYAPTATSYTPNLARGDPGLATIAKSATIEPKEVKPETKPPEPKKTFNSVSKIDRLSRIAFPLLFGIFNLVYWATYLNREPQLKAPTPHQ

Usually AC50 stands for the concentration at which the activity in the assay is half-maximal. High values mean weaker potency, low ones greater potency. As to `O=C(O)c1cc(O)ccc1O` [GENTISIC ACID], the half-maximal activity concentration (AC50) in test [1] is > 30 µM.
As to `CN(C)CC(c1ccc(O)cc1)C1(O)CCCCC1` (stereo not given) [DESVENLAFAXINE], the concentration at half-maximal activity (AC50) in test [1] and in test [2] was > 30 µM each time.
Regarding `OCCN1C[C@H](O)[C@@H](O)[C@H](O)[C@H]1CO` [MIGLITOL], the AC50 in test [1] was > 30 µM.
Take `C[N+]1(C)CCC(OC(=O)C(O)(c2ccccc2)C2CCCC2)C1` (stereo not given) [GLYCOPYRRONIUM BROMIDE]: in test [3], the AC50 was > 30 µM.
Regarding `c1ccc([C@H]2CN3CCSC3=N2)cc1` [LEVAMISOLE], the concentration at half-maximal activity (AC50) in test [4] and in test [3] was > 30 µM throughout.
Regarding `O=C(OCC(O)CO)c1ccccc1Nc1ccnc2cc(Cl)ccc12` (stereo not given) [GLAFENINE], the AC50 in test [1] and in test [4] was > 30 µM in each case.
On to `CCC(=O)NCC[C@@H]1CCc2ccc3c(c21)CCO3` [RAMELTEON], for which the AC50 in test [1] and in test [2] was > 30 µM each time.
On to `C[N+](C)(C)CCO` [CHOLINE], for which, in test [2], the AC50 is > 30 µM.
Turning to `CCCCCCOc1nsnc1C1=CCCN(C)C1` [XANOMELINE], the AC50 in test [1] was > 30 µM.
Same read-out and setting: the value for `CC[C@H]1[C@@H](O)[C@@H]2[C@H](CC[C@]3(C)[C@@H]([C@H](C)CCC(=O)O)CC[C@@H]23)[C@@]2(C)CC[C@@H](O)C[C@@H]12` [OBETICHOLIC ACID] was > 30 µM.
`CN1C(C(=O)Nc2ccccn2)=C(O)c2sc(Cl)cc2S1(=O)=O` [LORNOXICAM]: the concentration at half-maximal activity (AC50) is > 10 µM in test [5] and > 30 µM in test [3].
On to `CNC(=O)c1ccccc1Sc1ccc2c(/C=C/c3ccccn3)n[nH]c2c1` [AXITINIB], for which the AC50 in test [4] and in test [3] was > 30 µM throughout.
In the case of `CCc1oc2ccccc2c1C(=O)c1cc(I)c(O)c(I)c1` [BENZIODARONE], in test [2], the activity was half-maximal at 17.1 µM (AC50).
As to `Nc1nc(NC2CC2)c2ncn([C@H]3C=C[C@@H](CO)C3)c2n1` [ABACAVIR], the AC50 in test [4] is > 30 µM.
In the case of `CCCSc1ccc2nc(NC(=O)OC)[nH]c2c1` [ALBENDAZOLE], the half-maximal activity concentration (AC50) in test [3] is > 30 µM.
Consider `CNC1Cc2ccccc2N(C)c2ccccc21` (stereo not given) [METAPRAMINE], for which, in test [4], the concentration at half-maximal activity (AC50) was > 30 µM.
With `CC[N+]1(C)[C@@H]2CC(OC(=O)[C@H](CO)c3ccccc3)C[C@H]1[C@@H]1O[C@@H]12` (stereo not given in full) [OXITROPIUM], the AC50 in test [1] is > 30 µM.
With `CC(C)Nc1ncccn1` [ISAXONINE], the AC50 in test [1] and in test [2] was > 30 µM in each case.
Take `C1CCC(C(CC2CCCCN2)C2CCCCC2)CC1` (stereo not given) [PERHEXILINE]: the AC50 in test [4] is > 30 µM.
In the case of `O=C(Cc1ccc(-c2ccccc2)cc1)Nc1ccccn1` [DIFENPIRAMIDE], the AC50 in test [1], in test [4] and in test [2] was > 30 µM each time.
Regarding `CN(C)CCC=C1c2ccccc2C(C)(C)c2ccccc21`, the concentration at half-maximal activity (AC50) in test [4] is > 30 µM.
As to `C[C@@H](O)[C@H]1C(=O)N2C(C(=O)O)=C(S[C@@H]3CN[C@H](C(=O)N(C)C)C3)[C@H](C)[C@H]12` [MEROPENEM], the concentration at half-maximal activity (AC50) in test [4] is > 300 µM.
As for `COCCCN1CCC(NC(=O)c2cc(Cl)c(N)c3c2OCC3)CC1` [PRUCALOPRIDE], the AC50 in test [4] and in test [2] was > 30 µM each time.
Take `COCc1c(C(C)C)nc(C(C)C)c(/C=C/[C@@H](O)C[C@@H](O)CC(=O)O)c1-c1ccc(F)cc1` [CERIVASTATIN]: the concentration at half-maximal activity (AC50) in test [1] and in test [2] was > 30 µM throughout.
Regarding `COc1ccc(CC(C)(C)NC[C@H](O)c2cc(O)cc3c2OCC(=O)N3)cc1` [OLODATEROL], the AC50 in test [4] was > 30 µM.
For `CN(C)S(=O)(=O)c1ccc2c(c1)N(CCCN1CCC(CCO)CC1)c1ccccc1S2` [PIPOTIAZINE], the half-maximal activity concentration (AC50) in test [1] and in test [2] was > 30 µM throughout.
Consider `CC1=C(C(=O)O)N2C(=O)[C@@H](NC(=O)[C@H](N)c3ccccc3)[C@H]2SC1` [CEPHALEXIN ANHYDROUS], for which the AC50 in test [6], in test [7], in test [8] and in test [3] was > 30 µM throughout.
With `CC(=O)Nc1ccc(O)cc1` [ACETAMINOPHEN], the AC50 in test [1] and in test [4] was > 30 µM each time.
Take `C[C@H]1CNCCc2ccc(Cl)cc21` [LORCASERIN]: the AC50 in test [4] was > 30 µM.
In the case of `CN(C)CCn1nnnc1SCC1=C(C(=O)O)N2C(=O)[C@@H](NC(=O)Cc3csc(N)n3)[C@H]2SC1` [CEFOTIAM], the AC50 in test [1] and in test [2] was > 30 µM throughout.
Turning to `N[C@@H]1[C@H]2CN(c3nc4c(cc3F)c(=O)c(C(=O)O)cn4-c3ccc(F)cc3F)C[C@@H]12` [TROVAFLOXACIN], the half-maximal activity concentration (AC50) in test [4] is > 30 µM.
Turning to `C=CCc1ccccc1OCC(O)CNC(C)C` (stereo not given) [ALPRENOLOL], the AC50 in test [1] was > 0.3 µM.
With `Cc1cc(C#N)cc(C)c1Oc1nc(Nc2ccc(C#N)cc2)nc(N)c1Br` [ETRAVIRINE], the AC50 in test [1] and in test [2] was > 30 µM in each case.
Regarding `CCC1=C(C)CN(C(=O)NCCc2ccc(S(=O)(=O)NC(=O)N[C@H]3CC[C@H](C)CC3)cc2)C1=O` [GLIMEPIRIDE], the AC50 in test [1] and in test [2] was > 30 µM in each case.
Consider `N[C@@H](C(=O)N[C@@H]1C(=O)N2C(C(=O)O)=C(Cl)CC[C@H]12)c1ccccc1` [LORACARBEF ANHYDROUS], for which the concentration at half-maximal activity (AC50) in test [2] is > 30 µM.
With `CN(C)[C@@H](c1cccc(O)c1)[C@H]1CCCC[C@H]1O` [CIRAMADOL], the AC50 in test [1] and in test [2] was > 30 µM in each case.
Consider `c1cnc(N2CCN(Cc3ccc4c(c3)OCO4)CC2)nc1` [PIRIBEDIL], for which the AC50 in test [4] is > 30 µM.
`CC1(C)NC(=O)N(c2ccc([N+](=O)[O-])c(C(F)(F)F)c2)C1=O` [NILUTAMIDE]: in test [2], the AC50 was > 30 µM.
Take `CCOC(=O)[C@H](CCc1ccccc1)N[C@@H](C)C(=O)N1[C@H](C(=O)O)C[C@H]2CCCC[C@@H]21` [TRANDOLAPRIL]: the half-maximal activity concentration (AC50) in test [1] and in test [2] was > 30 µM each time.

Source of the values: ChEMBL document CHEMBL5291721, “A preclinical secondary pharmacology resource illuminates target-adverse drug reaction associations of marketed drugs” (Nat Commun, 2023).
